Source: US20230391841A1, “MACROCYCLIC PEPTIDES” (Herantis Pharma OYJ, priority 2019, published 2023)
Values belong to the molecule of their own block, whether it stands above or below them. Bridge positions count the residues as written; N and C are the ends. Ends that are not written are not given here. Peptide text beside a SMILES is read from it.

Columns and labels:
GRP78-NBD = assay: Binding to GRP78-NBD Kd (μM)
Text: Table printed on a drawing sheet, FIG. 5B
Head of the field: Binding to GRP78-NBD Kd (μM)
GRP78-NBD is shown in a translucent surface model along with its cartoon trace. The Cys-Cys bond in compound 12 (SEQ ID NO: 12) is shown in sticks.
The binding affinities are obtained by a microscale thermophoresis-based cell-free assay.
GSK2606414 was used to inhibit PERK signaling and KIRA6 to inhibit IRE1alpha signaling. * p<0.05, ** p<0.01, *** p<0.001, **** p<0.0001 one-way ANOVA is test with post-hoc Fisher's LSD test for pairwise comparison vs MPP+ negative control. # p<0.05, ## p<0.01, ### p<0.001, #### p<0.0001 one-way ANOVA test with post-hoc Fisher's LSD test for pairwise comparison between effect of compound alone and its combination with UPR signal inhibitor.
Where the first naming reader finds the target: head: Binding to GRP78-NBD Kd (μM)

[1] = system: dopaminergic TH-positive neurons injured with MPP+; assay: Neuroprotective effect on dopaminergic TH-positive neurons injured with MPP+ (primary mesencephalic culture); format: cell-based, rat
Protocol: Neuroprotective effects of compounds 1-26 (SEQ ID NO: 1-26) were tested in an in vitro model in which primary cultures of rat embryonic mesencephalic neurons were stressed with MPP+ , the active metabolite of neurotoxin 1-methyl-4-phenyl-1,2,3,6-tetrahydropyridine (MPTP). MPP+ kills dopaminergic (TH-positive) neurons via a variety of toxic mechanisms, including mitochondrial dysfunction, generation of peroxynitrite, oxidative stress, ER stress and induction of apoptosis.
Culture of mesencephalic neurons. Rat dopaminergic neurons were cultured as described by Visanji et al., 2008. Briefly, the midbrains obtained from 15-day-old rat embryos (Janvier, France) were dissected, and the ventral portion of the mesencephalic flexure, a region of the developing brain rich in dopaminergic neurons, was used for the cell preparations. The midbrain cells were dissociated by trypsinization for 20 min at 37° C. (solution at a final concentration of 0.05% trypsin and 0.02% EDTA). The reaction was stopped by adding Dulbecco's modified Eagle's medium (DMEM) containing DNAase I grade II (0.5 mg/mL) and 10% of fetal calf serum (FCS). Cells were then mechanically dissociated by 3 passages through a 10 ml pipette. Cells were then centrifuged at 180×g for 10 min at +4° C. on a layer of BSA (3.5%) in L15 medium. The cell pellets were re-suspended in a defined culture serum-free medium consisting of Neurobasal (Invitrogen) supplemented with B27 (2%), L-glutamine (2 mM) and 2% of PS solution and 1Ong/ml of Brain-derived neurotrophic factor (BDNF) and 1 ng/mL of Glial-Derived Neurotrophic Factor (GDNF). Viable cells were counted in a Neubauer cytometer using the trypan blue exclusion test. The cells were seeded at a density of 40 000 cells/well in 96 well-plates (pre-coated with poly-L-lysine) and maintained in a humidified incubator at 37° C. in 5% CO2/95% air atmosphere. Half of the medium was changed every 2 days with fresh medium. On 96-wells plates, only 60 wells are used. To avoid any edge effect, the first and last lines and columns were not used for culture and were filled with sterile water.
CDNF as well as linear and macrocyclic compounds […] (SEQ ID NOs: 1-26) were tested. On day 6 of culture, the compounds were dissolved in culture medium and then pre-is incubated with mesencephalic neurons for 4 hours before the MPP+ application. Four hours after the preincubation of the compounds, MPP+ was added to a final concentration of 4 pM, diluted in control medium still in presence of compounds for 48 h.
48 h after intoxication, the cells were fixed by a solution of 4% paraformaldehyde in PBS, pH 7.3 for 20 min at room temperature. The cells were washed twice in PBS, and then permeabilized and non-specific sites were blocked with a solution of PBS containing 0.1% of saponin and 1% FCS for 15 min at room temperature. Next, the cells were incubated with (a) a monoclonal antibody anti-Tyrosine Hydroxylase (TH) produced in mouse at dilution of 1:10000 and with (b) a polyclonal antibody anti-alpha-synuclein (α-syn) antibody produced in rabbit at dilution of 1:400 in PBS containing 1% FCS, 0.1% saponin, for 2 h at room temperature.
48 h after intoxication, the cell culture supernatant was removed, and the cells fixed by a solution of 4% paraformaldehyde in PBS, pH 7.3 for 20 min at room temperature. The cells were washed twice in PBS, and then permeabilized and non-specific sites were blocked with a solution of PBS containing 0.1% of saponin and 1% FCS for 15 min at room temperature. Then, the cells were incubated with a) a monoclonal Anti-Tyrosine Hydroxylase (TH) antibody produced in mouse at dilution of 1:10000 in PBS containing 1% FCS, 0.1% saponin, for 2 hours at room temperature, and b) a polyclonal anti-postsynaptic density protein-95 (PSD-95) antibody produced in rabbit at dilution of 1:200 in PBS containing 1% FCS, 0.1% saponin, for 2 h at room temperature. This antibody stains specifically synapses. […]

[2] = In vivo pharmacokinetics after intravenous administration to rats; parameters: species or system male Sprague-Dawley rats; details: rat, 5 mg/kg intravenous bolus, male Sprague-Dawley rats
Protocol: The clearance and elimination of peptides can be mediated by multiple processes in vivo, including metabolism and renal elimination.
Test compounds were intravenously (i.v.) administered to male Spraque-Dawley rats (about is six weeks old, n=3 per compound) at 5 mg/kg. Blood samples were collected from jugular vein through implanted in-dwelling catheters (250 pl blood) into labelled polypropylene tubes containing anticoagulant (heparin) at 2 min, 5 min,15 min, 30 min, 1 h, 2 h and 4 h after compound administration and held on wet ice for a maximum of 30 minutes. The blood samples were centrifuged for plasma separation (4 °C, 21100 G, 5 min). Tolbutamide 500ng/ml with 10% TFA in acetonitrile or in MeCN was used as an internal standard solution.
The standard samples were prepared into rat plasma by spiking the matrix into concentrations 2-10 000 ng/ml of the analyte, respectively, and otherwise treated as the samples. To 50 pl aliquots of sample plasma was added 200 pl of internal standard. Samples were mixed (150 rpm, 15 min) and centrifugated (3000 rpm, 15min). The analytical method was optimized for reaction monitoring chromatographic (peak shape & retention) shifts and mass spectrometric properties (ionization efficiency, MS/MS detection). Supernatants were analyzed by UHPLC-TOF mass spectrometry using electrospray ionization.

Molecule: VDLRKMRVAELKQILHSWGEECRACAE (disulfide 22-25) [Compound 1]
Kd (GRP78-NBD): 60 nM

Molecule: KSILDDWGETCKGCAE (disulfide 11-14) [Compound 9]
Kd (GRP78-NBD): 11000 nM

Molecule: VDLKKLRVKELKKILDDWGETCKGCAE (disulfide 22-25) [Compound 3]
Kd (GRP78-NBD): 290 nM

Molecule: CDNF: full-length cerebral dopamine neurotrophic factor protein (rhCDNF), positive reference in the MPP+ neuroprotection model
number of α-Syn inclusions (alpha-synuclein aggregates) in TH-positive neurons ([1]; primary rat mesencephalic culture after MPP+ injury): reducing accumulation
protection of TH-positive neurons, their neurites and synapses from MPP+ toxicity ([1]; primary rat mesencephalic culture, 4 h preincubation, MPP+ 48 h): neuroprotective

Molecule: CC[C@H](C)[C@H](NC(=O)[C@H](CCCCN)NC(=O)[C@H](CCCCN)NC(=O)[C@H](CC(C)C)NC(=O)[C@H](CCC(=O)O)NC(=O)[C@H](CCCCN)NC(=O)[C@@H](NC(=O)[C@H](CCCNC(=N)N)NC(=O)[C@H](CC(C)C)NC(=O)[C@H](CCCCN)NC(=O)[C@H](CCCCN)NC(=O)[C@H](CC(C)C)NC(=O)[C@H](CC(=O)O)NC(=O)[C@@H](N)C(C)C)C(C)C)C(=O)N[C@@H](CC(C)C)C(=O)N[C@@H](CC(=O)O)C(=O)N[C@@H](CC(=O)O)C(=O)N[C@@H](Cc1c[nH]c2ccccc12)C(=O)NCC(=O)N[C@@H](CCC(=O)O)C(=O)N[C@H](C(=O)N[C@H]1CSSC[C@@H](C(=O)N[C@@H](C)C(=O)N[C@@H](CCC(=O)O)C(=O)O)NC(=O)CNC(=O)[C@H](CCCCN)NC1=O)[C@@H](C)O [Compound 3] (H-VDLKKLRVKELKKILDDWGETCKGCAE-OH; disulfide 22-25)
AUC(0-inf) ([2]; in vivo): 4150 ng·h/mL
MRT ([2]; in vivo): 1.07 min
Vd ([2]; in vivo): 0.02 L/kg
half-life ([2]; in vivo): 4.52 min
clearance ([2]; plasma, read-out: CI): 20.1 mL/min/kg

Now from value to molecule:

Kd (GRP78-NBD): 3210 nM
Molecule: GEECRACAEKT (disulfide 4-7) [Compound 15]

Kd (GRP78-NBD): 1080 nM
Molecule: WGETCKGCAEKS (disulfide 5-8) [Compound 13]
